The values that follow come from patent US20020164581A1 (priority 2001, published 2002).

Test [1] relates to bovine aortic endothelial cells (bAECs). The experiment in a line: Lysophosphatidylcholine or homocysteine/Cu2+ challenge of E2-pretreated cells, cell survival. Format: cell-based. The procedure:
Prior to E2 pretreatment, cells were grown in phenol red-free DMEM supplemented with 10% dextran/charcoal-stripped FBS for at least 1 passage (3-4 days). Phenol red-free Dulbecco's modified medium was used to avoid potential estrogenic interference. Serum steroid deprivation was conducted according to the conditions described by Yeh et al. (Proc. Natl. Acad. Sci. USA 95:5527-5532, 1998). The E2 level in the stripped serum was assayed using an [^125I] 17β-estradiol radioimmunoassay kit (TKE21, Diagnostic Products Corporation, Los Angeles, Calif.). […] The cells grown in E2-free environments were plated onto Falcon 24-well Primariae™ plates at a density of 5×10^4 cells/well. […]
Cell survival after oxidative challenge was assessed with a 3-(4,5-dimethylthiazol-2-yl) 2,5 diphenyltetrazolium bromide (MTT) assay in which the mitochondrial dehydrogenase activity of viable cells reduces MTT to a blue formazan product (Carmichael et al. Cancer Res. 47:936-942, 1987). […] Following cell lysis, the absorbency was measured at 570 nm and used as an indicator of relative cell survival. The surviving fraction was calculated as compared to the cells without paraquat challenge.

Test [2] deals with antioxidant enzymes (SOD, CAT, GPX, GR) in bAECs. The experiment in a line: Antioxidant enzyme (AOE) activities in cell lysates, all four enzymes together. Format: cell-based, bovine. The procedure:
[…] The cells were then lysed on ice by sonication at a setting of 50 mW, with 3×15 set cycles using a Cole-Parmer Ultrasonic Homogenizer (Chicago, Ill.). Protein concentrations in the samples were determined by the Bradford method with bovine serum albumin as a standard (Bradford, Anal. Biochem. 72:248-254, 1976).
SOD activity was determined by a method based on the ability of SOD to suppress epinephrine auto-oxidation (Misra and Fridovich, J.Biol. Chem. 247:3170-3175, 1972). One unit of SOD activity is defined as the amount of protein that inhibits the oxidation of epinephrine by 50%. Briefly, 100 μl of 10×-diluted cell homogenate (about 10 μg protein) was added to 900 μl of carbonate buffer (0.1 M NaHCO3, 0.1 M Na2CO3, 0.1 mM EDTA, pH 10.2) containing 0.7 mM of epinephrine. The absorbency of the mixture was measured for 4 minutes at 480 nm using a Hitachi U-2000 spectrophotometer (Hitachi, San Jose, Calif.).
CAT activity was determined by the method of Aebi (Methods Enzymol. 105:121,-126, 1984). One unit of CAT activity is defined as the amount of protein that degrades 1 μmole of H2O2 per minute. Initially, 10 μl of absolute ethanol was mixed with 100 μl of cell homogenates and pre-incubated at 4° C. for 30 minutes. Following the addition of 10 μl Triton X-100 (reduced form), a 100 μl aliquot (about 100 μg of protein) of the resultant mixture was next added to 500 μl of hydrogen peroxide (66 mM) and 400 μl of phosphate buffer (0.1 M NaH2PO4, 0.1 M Na2HPO4, 0.1 mM EDTA, pH 7.0). The absorbency of the mixture was monitored for one minute at 240 nm spectrophotometrically. The molar extinction coefficient of 43.6 M/cm was used to determine the catalase activity.
GPX activity was determined by a modified method of Flohe and Gunzler (Methods Enzymol. 105:114-121, 1984). One unit of GPX activity is defined as the amount of protein that oxidizes 1 nmole of β-NADPH per minute. In this assay, 100 μl of cell homogenate (about 100 μg protein) was added to 800 μl of phosphate buffer (0.1 M NaH2PO4, 0.1 M Na2HPO4, 0.1 mM EDTA, pH 7.0) containing 12.5 mM glutathione (reduced form, GSH), 0.2 mM β-nicotinamide adenine dinucleotide phosphate (reduced form, β-NADPH), and 0.34 U glutathione reductase. This mixture was pre-incubated at 37 C for 10 minutes and then 100 μl of 12 mM t-butyl hydroperoxide was added. The absorbency of the mixture was determined at 340 nm for 3 minutes. The molar extinction coefficient of 6.22 mM/cm was used to determine the activity of GPX.
GR activity was determined by a modified method of Carlberg and Mannervik (Methods Enzymol. 11 3:484-490, 1985). One unit of GR activity is defined as the amount of protein that oxidizes 1 nmole of β-NADPH per minute. Briefly, 50 μl of 2 mM β-NADPH in 10 mM Tris buffer (pH 7.0) was added to a cuvette containing 50 μl of 20 mM glutathione (oxidized ofrm, GSSG) in phosphate buffer (0.1 M NaH2PO4, 0.1 M Na2HPO4, 0.1 mM EDTA, pH 7.0) and 800 μl of phosphate buffer. Following the addition of cell homogenate (about 100 μg protein/100 μl) the final mixture was measured at 340 nm for 3 minutes. The molar extinction coefficient of 6.22 mM/cm was used to determine the activity of […].

For `C[C@]12CC[C@@H]3c4ccc(O)cc4CC[C@H]3[C@@H]1CC[C@@H]2O` [E2, 17β-estradiol], in test [1] (homocysteine/Cu2+ 1 mM/25 μM, 3 hours), the “survival after homocysteine/Cu2+ challenge” value is on record as “gained survival benefit”. The “survival after lysophosphatidylcholine challenge” value in test [1] (lysophosphatidylcholine 10 μg/ml, 60 min) is listed as “gained survival benefit”. Also, in test [2] (1 nM E2, 30 minutes), the “AOE activities after brief incubation” value is recorded as “did not affect the activities of AOEs”. For the same molecule, the “activities of the four antioxidant enzymes” value in test [2] (1 nM-10 μM E2, 24 h) is “significant increases in the activities of all four of the enzymes tested”. Moreover, the “E2 concentration of optimal AOE induction” value in test [2] (24 h pretreatment) fell in the range of 1 to 10 nM. Moreover, the AOE activities entry in test [2] (female bAECs, 24 hour, 1 nM E2) is “significant elevation of all of the four AOE activities tested”; in test [2] (male bAECs incubated with 1 nM E2), “not induced”.
